We go through eight compounds from PubChem BioAssay (NCI).

The subject of this experiment is MDA-MB-468 breast. The experiment is described as follows: NCI-60 cell line screen, 48 h.

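Grown in 96-well plates, cells were treated for 48 hours with each compound at five concentrations. Insufficient inhibition: endpoint recorded as highest concentration tested. GI50 marks 50% less growth. At the TGI there is no net growth.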 Bounds are passed on as bounds.

For `Cn1cnc([N+](=O)[O-])c1S(=O)(=O)Oc1cccc2ccccc12`, the GI50 is 1.85 µM and the TGI turned out to be 3.84 µM.
The like results for `COc1ccc(-c2nnc(COc3ccc(C(=O)/C=C/c4ccco4)cc3)o2)cc1` were, in that order, 1.89 µM and 4.12 µM.
The matching figures for `C=C1C(=O)O[C@H]2[C@H]1CC/C(COC(=O)c1c[nH]c3ccccc13)=C\CC[C@@]1(C)O[C@@H]21`: 0.19 µM and 0.448 µM.
Take `C/C(=C(/c1ccc(O)cc1)c1ccc(OCCN2CCCC2)cc1)c1ccc(Cl)cc1`: the GI50 is 1.88 µM and the TGI was found to be 4.11 µM.
The matching figures for `CC[C@H](Nc1ncnc2nc[nH]c12)c1oc2ccccc2c(=O)c1-c1cccc(F)c1`: 9.08 µM and 34.4 µM.
Take `O=C(/C=C/c1ccncc1)c1cc(Cl)ccc1O`: the GI50 is 18.1 µM and the TGI turned out to be 33 µM.
The matching figures for `O=C(CCc1nnc2sc(-c3ccc(Cl)cc3Cl)nn12)c1nc2ncccc2[nH]1`: 2.09 µM and 4.41 µM.
Consider `CCCCCCCC(=O)SCC/C=C/[C@@H]1CC(=O)NCc2cc(ccn2)C2=N[C@@](C)(CS2)C(=O)N[C@@H](C(C)C)C(=O)O1`, for which the GI50 was 0.055 µM and the TGI was more than 33.3 µM.
